The target in series [1] is T1, MaC3'H-MaCPR2 (Morus alba, UniProt A0A5P9L9Q5).
T1 construct: full ORFs of MaC3'H and MaCPR2 (715 aa) co-expressed from pESC-Trp (GAL1/GAL10) in Saccharomyces cerevisiae INVSc1; with NADPH--cytochrome P450 reductase
T1 sequence (A0A5P9L9Q5 1-509): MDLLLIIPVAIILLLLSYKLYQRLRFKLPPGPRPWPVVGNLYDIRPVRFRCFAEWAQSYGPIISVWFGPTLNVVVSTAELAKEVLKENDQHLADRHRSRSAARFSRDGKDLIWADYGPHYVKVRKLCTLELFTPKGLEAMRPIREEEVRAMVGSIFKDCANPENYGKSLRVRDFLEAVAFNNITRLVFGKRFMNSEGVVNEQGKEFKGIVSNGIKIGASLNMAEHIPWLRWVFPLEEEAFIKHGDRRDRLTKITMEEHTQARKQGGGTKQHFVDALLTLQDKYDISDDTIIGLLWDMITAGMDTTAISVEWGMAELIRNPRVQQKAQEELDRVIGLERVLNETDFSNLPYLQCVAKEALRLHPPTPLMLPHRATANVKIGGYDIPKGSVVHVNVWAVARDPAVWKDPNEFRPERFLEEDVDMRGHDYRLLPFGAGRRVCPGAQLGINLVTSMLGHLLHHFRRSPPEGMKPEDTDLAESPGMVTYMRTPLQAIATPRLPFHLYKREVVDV
In words: yeast feeding, product by HPLC and LC-MS. As to conditions: 100 μM fed to yeast culture, 48 h, 30 °C; needs co-expressed MaCPR2. In kind it is cell-based.

Series [2] relates to NC(=O)C1=CN([C@@H]2O[C@H](COP(=O)(O)OP(=O)(O)OC[C@H]3O[C@@H](n4cnc5c(N)ncnc54)[C@H](OP(=O)(O)O)[C@@H]3O)[C@@H](O)[C@H]2O)C=CC1. In words: purified protein. As to conditions: cytochrome c 200 μM, 50 mM Tris-HCl pH 7.4, 0.1 mM EDTA, 25 °C, varied: cofactor.

On to `O=C(/C=C/c1ccc(O)c(O)c1)O[C@@H]1C[C@](O)(C(=O)O)C[C@@H](O)[C@H]1O` [chlorogenic acid], for which, in series [1], the “yeast feeding, product by HPLC and LC-MS” value is listed as “expected product chlorogenic acid was detected in MaC3'H-MaCPR2/pESC-Trp/INVSCI engineered bacteria”.

On to `O=C(/C=C/c1ccc(O)cc1)O[C@@H]1C[C@](O)(C(=O)O)C[C@@H](O)[C@H]1O` [3-O-p-coumaroylquinic acid], for which, in series [1], the “yeast feeding, product by HPLC and LC-MS” value is given as “transfers electrons to MaC3'H hydroxylase, thus transforming 3-O-p-coumaroylquinic acid into chlorogenic acid”.

The Km is the concentration of substrate that gives half-maximal velocity. As a reminder, the Vmax is the rate approached at saturating substrate. Turning to MaCPR2 (Morus alba), in series [2], the Km was 13.93 ± 1.54 µmol/L and the maximum rate (Vmax) stood at 2.43 µmol/min/mg.

These data come from PMC10885410, “Mining and functional characterization of NADPH-cytochrome P450 reductases of the DNJ biosynthetic pathway in mulberry leaves” (BMC Plant Biology, 2024).
